Values after ≈ are worked out from the molar mass of the structure shown. Like-named read-outs stand apart in the source and are kept apart here.
Legend:
[1] = target: fungal (fACC2) (UniProt Q00955); details: read-out: fACC2 (in vitro ACC2 Inhibition Assay, IC50), ADP-Glo, 5 nM ACC2, 20 μM ATP, 20 μM acetyl-CoA
Protocol: An exemplary procedure for the in vitro ACC inhibition assay, which can be used to determine the inhibitory action of compounds of the invention toward either human (hACC2) or fungal (fACC2), follows. The ADP-Glo™ Kinase Assay kit from Promega was used. The ADP-Glo™ Kinase Assay is a luminescent ADP detection assay to measure enzymatic activity by quantifying the amount of ADP produced during an enzyme reaction. The assay is performed in two steps; first, after the enzyme reaction, an equal volume of ADP-Glo™ Reagent is added to terminate the reaction and deplete the remaining ATP. Second, the Kinase Detection Reagent is added to simultaneously convert ADP to ATP and allow the newly synthesized ATP to be measured using a luciferase/luciferin reaction. Luminescence can be correlated to ADP concentrations by using an ATP-to-ADP conversion curve. […] 50 μL of the compound being tested (600 μM in DMSO) was added to a 384-well dilution plate. The compound was diluted 1:3 in succession in DMSO for each row for 11 wells. 0.5 μL ACC2 working solution was added to 384-well white Optiplate assay plate. 0.5 μL diluted compound solution in each column from step 2 was added to assay plate, each row containing 2 replicates. […] The plates were incubated at room temperature for 15 minutes. 5 μL substrate working solution was added to each well to initiate reaction. Final ACC2 reaction concentrations consist of: 5 nM ACC2, 20 μM ATP, 20 μM acetyl-CoA, 12 mM NaHCO3, 0.01% Brij35, 2 mM DTT, 5% DMSO, test compound concentrations: 30 μM, 10 μM, 3.33 μM, 1.11 μM, 0.37 μM, 0.123 μM, 0.0411 μM, 0.0137 μM, 0.00457 μM, 0.00152 μM, and 0.00051 μM. Plates were incubated at room temperature for 60 minutes. 10 μL ADP glo reagent was added. Plates were incubated at room temperature for 40 minutes. 20 μL kinase detection reagent was added. Plates were incubated at room temperature for 40 minutes, and then read on a Perkin Elmer EnVision 2104 plate reader for luminescence as Relative Light Units (RLU).
Data for each concentration, as well as the positive and negative controls were averaged, and the standard deviation calculated. Percent inhibition was calculated by the formula: 100×(average negative control−compound)/(average negative control−average positive control). The IC50 for each compound was calculated by fitting the data with a non-linear regression equation: Y=Bottom+(Top−Bottom)/(1+10 ((Log IC50−X)*HillSlope)), where X is the log of compound concentration and Y is percent inhibition.

[2] = tested on: Botrtyis cinerea (Bc); test: Growth inhibition assay of fungal pathogens, Bc; format: cell-based; details: 48 h
In short: (§1)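 Spores from sub-cultured plates were diluted in 17% V8 liquid medium and exposed to compound from DMSO stocks at final concentrations of 50, 10 and 2 ppm or 2, 0.4 and 0.08 ppm. OD600 and visual ratings at 48 h were compared with the 2% DMSO control to give percent growth inhibition.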

[3] = tested on: Rhizoctonia solani (Rs); test: Growth inhibition assay of fungal pathogens, Rs; format: cell-based; details: 48 h
[4] = tested on: Diplodia maydis (Dm); test: Growth inhibition assay of fungal pathogens, Dm; format: cell-based; details: Stenocarpella maydis, 48 h
In short: as §1

[5] = tested on: C. parapsilosis; test: Antifungal Activity Assay (broth microtiter MIC), C. parapsilosis; format: cell-based, Candida parapsilosis; details: Lodderomyces parapsilosis, ATCC22019, 48 h
In short: (§2)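 Broth microdilution per CLSI M27-A3 in RPMI 1640+MOPS, inoculum 2.5×10^3 CFU/mL final from overnight Sabouraud dextrose agar cultures at 35° C. Compounds diluted from DMSO stock to 128 μg/mL in water. MIC read visually versus growth control at 48 h.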

[6] = tested on: C. albicans; test: Antifungal Activity Assay (broth microtiter MIC), C. albicans; format: cell-based, Candida albicans; details: Candida albicans, ATCC90028, 48 h
In short: as §2

[7] = tested on: Septoria tritici (St); test: Growth inhibition assay of fungal pathogens, St; format: cell-based; details: Zymoseptoria tritici, 48 h
In short: as §1

[8] = tested on: Fusarium moniliforme (Fm); test: Growth inhibition assay of fungal pathogens, Fm; format: cell-based; details: for IC90: Fusarium verticillioides, 48 h, read-out: Concentration at 90% Inhibition Fm
In short: as §1

[9] = target: human (hACC2) (Homo sapiens, UniProt O00763); test: In vitro ACC inhibition assay (ADP-Glo), hACC2; format: biochemical; details: 5 nM ACC2, 20 μM ATP, 20 μM acetyl-CoA
Chain of human (hACC2) (O00763 whole entry): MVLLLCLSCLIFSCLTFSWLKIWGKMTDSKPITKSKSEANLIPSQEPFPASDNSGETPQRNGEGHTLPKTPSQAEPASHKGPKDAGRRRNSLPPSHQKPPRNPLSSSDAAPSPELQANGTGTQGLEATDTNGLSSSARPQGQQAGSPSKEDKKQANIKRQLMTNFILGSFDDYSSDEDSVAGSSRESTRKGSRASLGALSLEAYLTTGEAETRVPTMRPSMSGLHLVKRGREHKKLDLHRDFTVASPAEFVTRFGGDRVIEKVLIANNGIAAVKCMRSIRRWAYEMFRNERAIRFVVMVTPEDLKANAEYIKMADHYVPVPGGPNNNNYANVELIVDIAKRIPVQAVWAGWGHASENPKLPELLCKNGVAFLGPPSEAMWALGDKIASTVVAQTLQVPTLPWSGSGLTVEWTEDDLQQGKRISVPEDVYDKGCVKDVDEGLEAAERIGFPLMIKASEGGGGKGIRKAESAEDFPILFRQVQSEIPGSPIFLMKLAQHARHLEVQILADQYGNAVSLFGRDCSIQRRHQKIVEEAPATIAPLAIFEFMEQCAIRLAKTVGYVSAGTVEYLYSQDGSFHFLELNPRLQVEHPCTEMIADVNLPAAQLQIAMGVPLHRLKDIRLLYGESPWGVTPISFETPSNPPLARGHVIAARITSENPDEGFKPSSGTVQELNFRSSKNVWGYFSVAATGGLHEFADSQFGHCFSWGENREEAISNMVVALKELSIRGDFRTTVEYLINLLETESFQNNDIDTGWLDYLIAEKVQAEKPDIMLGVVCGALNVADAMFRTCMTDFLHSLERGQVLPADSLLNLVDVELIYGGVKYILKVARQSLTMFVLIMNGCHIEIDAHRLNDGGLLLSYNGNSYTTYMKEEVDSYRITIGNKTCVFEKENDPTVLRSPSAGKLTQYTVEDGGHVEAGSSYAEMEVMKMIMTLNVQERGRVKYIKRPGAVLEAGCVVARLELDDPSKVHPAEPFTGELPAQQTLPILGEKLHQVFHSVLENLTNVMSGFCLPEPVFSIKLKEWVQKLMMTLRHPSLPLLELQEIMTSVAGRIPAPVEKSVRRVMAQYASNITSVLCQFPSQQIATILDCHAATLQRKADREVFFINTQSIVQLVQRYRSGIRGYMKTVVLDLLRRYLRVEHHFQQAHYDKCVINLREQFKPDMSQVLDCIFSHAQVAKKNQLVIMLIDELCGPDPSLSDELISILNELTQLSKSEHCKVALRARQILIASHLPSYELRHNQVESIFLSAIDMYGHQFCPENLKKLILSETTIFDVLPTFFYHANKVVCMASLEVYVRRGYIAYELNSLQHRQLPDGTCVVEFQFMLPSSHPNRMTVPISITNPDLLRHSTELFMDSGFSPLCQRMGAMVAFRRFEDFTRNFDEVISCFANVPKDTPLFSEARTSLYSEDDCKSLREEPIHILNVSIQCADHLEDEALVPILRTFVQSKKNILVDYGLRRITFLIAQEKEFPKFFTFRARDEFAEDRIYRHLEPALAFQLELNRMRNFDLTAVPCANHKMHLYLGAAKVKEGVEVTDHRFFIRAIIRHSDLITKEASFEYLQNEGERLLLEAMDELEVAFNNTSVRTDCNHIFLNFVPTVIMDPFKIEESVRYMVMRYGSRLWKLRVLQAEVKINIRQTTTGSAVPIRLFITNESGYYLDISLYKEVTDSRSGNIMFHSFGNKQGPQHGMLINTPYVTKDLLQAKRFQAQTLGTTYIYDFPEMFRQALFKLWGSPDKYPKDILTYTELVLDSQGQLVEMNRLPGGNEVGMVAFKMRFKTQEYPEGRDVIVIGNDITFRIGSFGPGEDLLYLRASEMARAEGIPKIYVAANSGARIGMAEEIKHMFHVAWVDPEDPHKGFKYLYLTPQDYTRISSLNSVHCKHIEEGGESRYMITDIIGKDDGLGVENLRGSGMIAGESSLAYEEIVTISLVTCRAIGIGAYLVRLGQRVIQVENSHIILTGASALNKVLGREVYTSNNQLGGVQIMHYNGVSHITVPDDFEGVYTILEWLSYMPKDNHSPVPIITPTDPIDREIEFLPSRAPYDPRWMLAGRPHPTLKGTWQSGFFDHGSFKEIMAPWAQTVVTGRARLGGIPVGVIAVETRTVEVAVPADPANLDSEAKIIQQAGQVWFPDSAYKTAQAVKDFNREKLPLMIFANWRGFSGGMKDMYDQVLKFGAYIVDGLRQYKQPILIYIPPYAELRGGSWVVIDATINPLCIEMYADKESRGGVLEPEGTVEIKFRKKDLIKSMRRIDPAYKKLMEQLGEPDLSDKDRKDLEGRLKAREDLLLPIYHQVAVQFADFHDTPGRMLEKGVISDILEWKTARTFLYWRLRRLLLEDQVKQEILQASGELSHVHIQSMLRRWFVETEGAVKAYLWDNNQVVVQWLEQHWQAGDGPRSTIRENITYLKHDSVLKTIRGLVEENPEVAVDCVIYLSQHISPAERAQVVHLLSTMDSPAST
Protocol: The detailed procedure is as follows. […] 10 μL ADP glo reagent was added. […] 20 μL kinase detection reagent was added.

[10] = tested on: Fusarium virguliforme (Fv); test: Growth inhibition assay of fungal pathogens, Fv; format: cell-based; details: 48 h
In short: as §1

[11] = Botrtyis cinerea, growth inhibition at 48 hours vs 2% DMSO control, read-out: Concentration at 90% Inhibition Bc
[12] = Botrtyis cinerea, growth inhibition vs 2% DMSO control at 48 hours, read-out: Concentration at 90% Inhibition Bc
[13] = mycelial plugs, growth inhibition at 48 hours vs 2% DMSO control, read-out: Concentration at 90% Inhibition Rs
[14] = mycelial plugs, growth inhibition vs 2% DMSO control at 48 hours, read-out: Concentration at 90% Inhibition Rs
[15] = Diplodia maydis, growth inhibition at 48 hours vs 2% DMSO control, read-out: Concentration at 90% Inhibition Dm
[16] = Diplodia maydis, growth inhibition vs 2% DMSO control at 48 hours, read-out: Concentration at 90% Inhibition Dm
[17] = Table 3a, ATCC 22019, 3 replicates, MIC recorded at 48 h, read-out: MIC, C. parapsilosis ATCC 22019
[18] = Table 3b (additional results), ATCC 22019, 3 replicates, MIC recorded at 48 h, read-out: MIC, C. parapsilosis ATCC 22019
[19] = Table 3a, ATCC 90028, 3 replicates, MIC recorded at 48 h, read-out: MIC, C. albicans ATCC 90028
[20] = Table 3b (additional results), ATCC 90028, 3 replicates, MIC recorded at 48 h, read-out: MIC, C. albicans ATCC 90028
[21] = Septoria tritici, growth inhibition at 48 hours vs 2% DMSO control, read-out: Concentration at 90% Inhibition St
[22] = Septoria tritici, growth inhibition vs 2% DMSO control at 48 hours, read-out: Concentration at 90% Inhibition St
[23] = Fusarium moniliforme, growth inhibition at 48 hours vs 2% DMSO control
[24] = Fusarium moniliforme, growth inhibition vs 2% DMSO control at 48 hours
[25] = growth inhibition at 48 hours vs 2% DMSO control, read-out: Concentration at 90% Inhibition Fv
[26] = growth inhibition vs 2% DMSO control at 48 hours, read-out: Concentration at 90% Inhibition Fv

Chain of fungal (fACC2) (Q00955 whole entry): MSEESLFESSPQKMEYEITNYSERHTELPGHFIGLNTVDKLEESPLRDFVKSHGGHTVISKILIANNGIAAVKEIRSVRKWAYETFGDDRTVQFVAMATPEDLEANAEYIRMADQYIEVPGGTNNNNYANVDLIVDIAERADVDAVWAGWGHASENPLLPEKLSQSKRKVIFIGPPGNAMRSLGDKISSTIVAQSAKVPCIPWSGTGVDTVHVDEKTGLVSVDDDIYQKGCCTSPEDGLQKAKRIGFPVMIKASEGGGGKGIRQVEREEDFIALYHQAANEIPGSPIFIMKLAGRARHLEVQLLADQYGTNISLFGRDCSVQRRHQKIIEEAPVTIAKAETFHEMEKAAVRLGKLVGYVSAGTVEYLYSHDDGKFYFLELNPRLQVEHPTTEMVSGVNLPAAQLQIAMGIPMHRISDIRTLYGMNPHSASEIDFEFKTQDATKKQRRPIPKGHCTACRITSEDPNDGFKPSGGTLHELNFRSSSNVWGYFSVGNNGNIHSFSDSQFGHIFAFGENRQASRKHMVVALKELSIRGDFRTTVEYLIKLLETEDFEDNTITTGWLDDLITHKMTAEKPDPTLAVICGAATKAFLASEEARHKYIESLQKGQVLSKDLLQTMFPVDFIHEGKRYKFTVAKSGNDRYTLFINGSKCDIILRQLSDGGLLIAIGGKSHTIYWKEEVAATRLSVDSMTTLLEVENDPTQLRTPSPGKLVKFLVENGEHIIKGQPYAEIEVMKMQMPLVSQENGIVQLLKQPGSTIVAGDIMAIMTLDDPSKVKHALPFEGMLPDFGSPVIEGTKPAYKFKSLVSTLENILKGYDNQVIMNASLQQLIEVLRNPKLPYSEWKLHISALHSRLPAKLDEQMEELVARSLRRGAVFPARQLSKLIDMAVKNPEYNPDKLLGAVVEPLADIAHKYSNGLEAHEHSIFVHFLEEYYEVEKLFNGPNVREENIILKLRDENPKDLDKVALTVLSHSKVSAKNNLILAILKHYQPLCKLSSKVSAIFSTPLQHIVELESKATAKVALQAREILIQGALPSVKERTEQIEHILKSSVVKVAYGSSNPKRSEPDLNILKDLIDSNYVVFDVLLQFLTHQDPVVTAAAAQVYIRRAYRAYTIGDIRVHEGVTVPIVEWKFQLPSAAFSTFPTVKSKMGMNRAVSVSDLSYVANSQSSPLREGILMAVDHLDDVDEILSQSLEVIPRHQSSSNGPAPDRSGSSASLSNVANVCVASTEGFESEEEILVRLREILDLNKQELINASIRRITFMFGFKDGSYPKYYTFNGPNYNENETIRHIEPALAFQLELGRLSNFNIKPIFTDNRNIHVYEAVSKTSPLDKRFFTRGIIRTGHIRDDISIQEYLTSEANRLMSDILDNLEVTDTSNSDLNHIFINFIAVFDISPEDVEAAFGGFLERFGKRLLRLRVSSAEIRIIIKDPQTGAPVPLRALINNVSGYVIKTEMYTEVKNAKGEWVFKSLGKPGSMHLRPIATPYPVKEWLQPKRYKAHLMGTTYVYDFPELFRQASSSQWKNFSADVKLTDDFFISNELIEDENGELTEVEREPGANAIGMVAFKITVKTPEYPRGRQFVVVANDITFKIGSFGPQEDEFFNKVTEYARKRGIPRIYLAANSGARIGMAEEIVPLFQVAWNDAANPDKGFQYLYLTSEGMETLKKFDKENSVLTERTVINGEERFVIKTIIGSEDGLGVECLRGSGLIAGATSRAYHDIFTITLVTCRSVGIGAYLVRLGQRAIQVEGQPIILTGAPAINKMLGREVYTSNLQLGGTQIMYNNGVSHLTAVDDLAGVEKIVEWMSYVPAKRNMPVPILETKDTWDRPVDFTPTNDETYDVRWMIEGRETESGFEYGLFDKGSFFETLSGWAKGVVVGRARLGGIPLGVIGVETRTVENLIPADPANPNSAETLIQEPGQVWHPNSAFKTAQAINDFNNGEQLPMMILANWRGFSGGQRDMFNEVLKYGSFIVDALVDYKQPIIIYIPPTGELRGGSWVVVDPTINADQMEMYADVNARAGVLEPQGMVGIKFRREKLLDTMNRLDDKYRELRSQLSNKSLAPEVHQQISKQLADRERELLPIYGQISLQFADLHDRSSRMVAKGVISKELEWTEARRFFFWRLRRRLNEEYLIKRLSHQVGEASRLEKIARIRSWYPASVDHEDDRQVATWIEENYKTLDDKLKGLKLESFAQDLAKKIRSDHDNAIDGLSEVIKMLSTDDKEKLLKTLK

| SMILES | IC50 ([1]; Table 2a) | IC50 ([1]; Table 2b, additional results) | IC90 [2, 11] | IC90 [2, 12] | IC90 [3, 13] | IC90 [3, 14] | IC90 [4, 15] | IC90 [4, 16] | MIC [5, 17] | MIC [5, 18] | MIC [6, 19] | MIC [6, 20] | IC90 [7, 21] | IC90 [7, 22] | IC90 [8, 23] | IC90 [8, 24] | IC50 ([9]; Table 2a) | IC50 ([9]; Table 2b, additional results) | IC90 [10, 25] | IC90 [10, 26] | also measured |
| --- | --- | --- | --- | --- | --- | --- | --- | --- | --- | --- | --- | --- | --- | --- | --- | --- | --- | --- | --- | --- | --- |
| Cc1c(-n2nccn2)sc2c1c(=O)n(C(C)(C)C(=O)NC(C)C)c(=O)n2C[C@H](OC(C)C)c1cc(F)ccc1OCCO [Compound I-53, (R)-2-(1-(2-(5-fluoro-2-(2-hydroxyethoxy)phenyl)-2-isopropoxyethyl)-5-methyl-2,4-dioxo-6-(2H-1,2,3-triazol-2-yl)-1,4-dihydrothieno[2,3-d]pyrimidin-3(2H)-yl)-N-isopropyl-2-methylpropanamide] | 1 to 5 nM | 1 to 5 nM | 0.4 µg/mL (≈ 0.649 µM) | 0.4 µg/mL (≈ 0.649 µM) | 0.08 µg/mL (≈ 0.13 µM) | 0.08 µg/mL (≈ 0.13 µM) | 0.4 µg/mL (≈ 0.649 µM) | 0.4 µg/mL (≈ 0.649 µM) | 0.25 to 1 µg/mL (≈ 0.405 to 1.62 µM) | 1.01 to 2 µg/mL (≈ 1.64 to 3.24 µM) | 0.25 to 1 µg/mL (≈ 0.405 to 1.62 µM) | 0.25 to 1 µg/mL (≈ 0.405 to 1.62 µM) | > 50 µg/mL | > 50 µg/mL | 0.08 µg/mL (≈ 0.13 µM) | 0.08 µg/mL (≈ 0.13 µM) | 10 to 40 nM | 10 to 40 nM | 0.4 µg/mL (≈ 0.649 µM) | 0.4 µg/mL (≈ 0.649 µM) |  |
| COCCOc1ccc(F)cc1[C@H](Cn1c(=O)n(C(C)(C)C(=O)NC(C)C)c(=O)c2c(C)c(-n3nccn3)sc21)OC(C)C [Compound I-54, (R)-2-(1-(2-(5-fluoro-2-(2-methoxyethoxy)phenyl)-2-isopropoxyethyl)-5-methyl-2,4-dioxo-6-(2H-1,2,3-triazol-2-yl)-1,4-dihydrothieno[2,3-d]pyrimidin-3(2H)-yl)-N-isopropyl-2-methylpropanamide] | 1 to 5 nM | 1 to 5 nM | 0.4 µg/mL (≈ 0.634 µM) | 0.4 µg/mL (≈ 0.634 µM) | 0.4 µg/mL (≈ 0.634 µM) | 0.4 µg/mL (≈ 0.634 µM) | 0.08 µg/mL (≈ 0.127 µM) | 0.08 µg/mL (≈ 0.127 µM) | 0.25 to 1 µg/mL (≈ 0.396 to 1.59 µM) | 1.01 to 2 µg/mL (≈ 1.6 to 3.17 µM) | 0.25 to 1 µg/mL (≈ 0.396 to 1.59 µM) | 0.25 to 1 µg/mL (≈ 0.396 to 1.59 µM) | > 50 µg/mL | > 50 µg/mL | 0.08 µg/mL (≈ 0.127 µM) | 0.08 µg/mL (≈ 0.127 µM) | 10 to 40 nM | 10 to 40 nM | 0.4 µg/mL (≈ 0.634 µM) | 0.4 µg/mL (≈ 0.634 µM) |  |
| Cc1c(-n2nccn2)sc2c1c(=O)n(C(C)(C)C(=O)NC(C)C)c(=O)n2C[C@H](OC(C)C)c1cc(F)ccc1OCC1COC1 [Compound I-55, (R)-2-(1-(2-(5-fluoro-2-(oxetan-3-ylmethoxy)phenyl)-2-isopropoxyethyl)-5-methyl-2,4-dioxo-6-(2H-1,2,3-triazol-2-yl)-1,4-dihydrothieno[2,3-d]pyrimidin-3(2H)-yl)-N-isopropyl-2-methylpropanamide] | 1 to 5 nM | 1 to 5 nM | 0.4 µg/mL (≈ 0.622 µM) | 0.4 µg/mL (≈ 0.622 µM) | 0.4 µg/mL (≈ 0.622 µM) | 0.4 µg/mL (≈ 0.622 µM) | 0.4 µg/mL (≈ 0.622 µM) | 0.4 µg/mL (≈ 0.622 µM) | 0.25 to 1 µg/mL (≈ 0.389 to 1.56 µM) | 1.01 to 2 µg/mL (≈ 1.57 to 3.11 µM) | 0.25 to 1 µg/mL (≈ 0.389 to 1.56 µM) | 1.01 to 2 µg/mL (≈ 1.57 to 3.11 µM) | > 50 µg/mL | > 50 µg/mL | 0.08 µg/mL (≈ 0.124 µM) | 0.08 µg/mL (≈ 0.124 µM) | 10 to 40 nM | 10 to 40 nM | 0.4 µg/mL (≈ 0.622 µM) | 0.4 µg/mL (≈ 0.622 µM) |  |
| Cc1c(-n2nccn2)sc2c1c(=O)n(C(C)(C)C(=O)NC(C)C)c(=O)n2C[C@H](OC(C)C)c1cc(F)ccc1OCC#N [Compound I-56, (R)-2-(1-(2-(2-(cyanomethoxy)-5-fluorophenyl)-2-isopropoxyethyl)-5-methyl-2,4-dioxo-6-(2H-1,2,3-triazol-2-yl)-1,4-dihydrothieno[2,3-d]pyrimidin-3(2H)-yl)-N-isopropyl-2-methylpropanamide] | 1 to 5 nM | 1 to 5 nM |  |  |  |  |  |  |  |  |  |  |  |  |  |  | 10 to 40 nM | 10 to 40 nM |  |  | IC90 ([2]; read-out: Concentration at 90% Inhibition Bc, Botrtyis cinerea, growth inhibition at 48 hours vs 2% DMSO control): 0.4 µg/mL (≈ 0.654 µM); IC90 ([2]; read-out: Concentration at 90% Inhibition Bc, Botrtyis cinerea, growth inhibition vs 2% DMSO control at 48 hours): 0.4 µg/mL (≈ 0.654 µM); IC90 ([3]; read-out: Concentration at 90% Inhibition Rs, Rhizoctonia solani, mycelial plugs, growth inhibition at 48 hours vs 2% DMSO control): 2 µg/mL (≈ 3.27 µM); IC90 ([3]; read-out: Concentration at 90% Inhibition Rs, Rhizoctonia solani, mycelial plugs, growth inhibition vs 2% DMSO control at 48 hours): 2 µg/mL (≈ 3.27 µM); IC90 ([4]; read-out: Concentration at 90% Inhibition Dm, Diplodia maydis, growth inhibition at 48 hours vs 2% DMSO control): 0.4 µg/mL (≈ 0.654 µM); IC90 ([4]; read-out: Concentration at 90% Inhibition Dm, Diplodia maydis, growth inhibition vs 2% DMSO control at 48 hours): 0.4 µg/mL (≈ 0.654 µM); MIC ([5]; read-out: MIC, C. parapsilosis ATCC 22019, Table 3a, 3 replicates, MIC recorded at 48 h): 0.25 to 1 µg/mL (≈ 0.409 to 1.63 µM); MIC ([5]; read-out: MIC, C. parapsilosis ATCC 22019, Table 3b (additional results), 3 replicates, MIC recorded at 48 h): 1.01 to 2 µg/mL (≈ 1.65 to 3.27 µM); MIC ([6]; read-out: MIC, C. albicans ATCC 90028, Table 3a, 3 replicates, MIC recorded at 48 h): 0.25 to 1 µg/mL (≈ 0.409 to 1.63 µM); MIC ([6]; read-out: MIC, C. albicans ATCC 90028, Table 3b (additional results), 3 replicates, MIC recorded at 48 h): 1.01 to 2 µg/mL (≈ 1.65 to 3.27 µM); IC90 ([7]; read-out: Concentration at 90% Inhibition St, Septoria tritici, growth inhibition at 48 hours vs 2% DMSO control): 10 µg/mL (≈ 16.3 µM); IC90 ([7]; read-out: Concentration at 90% Inhibition St, Septoria tritici, growth inhibition vs 2% DMSO control at 48 hours): > 50 µg/mL; Concentration at 90% Inhibition Fm [8, 23]: AA (compound concentration of 0.08 ppm at 90% inhibition of fungal pathogens); IC90 [8]: 0.08 µg/mL (≈ 0.131 µM); IC90 ([10]; read-out: Concentration at 90% Inhibition Fv, Fusarium virguliforme, growth inhibition at 48 hours vs 2% DMSO control): 0.08 µg/mL (≈ 0.131 µM); IC90 ([10]; read-out: Concentration at 90% Inhibition Fv, Fusarium virguliforme, growth inhibition vs 2% DMSO control at 48 hours): 0.08 µg/mL (≈ 0.131 µM) |
| COc1ccc(F)cc1[C@H](Cn1c(=O)n(C(C)(C)C(=O)N2CC=CC2)c(=O)c2c(C)c(-n3nccn3)sc21)OC1CCOCC1 [Compound I-62, (R)-3-(1-(2,5-dihydro-1H-pyrrol-1-yl)-2-methyl-1-oxopro-pan-2-yl)-1-(2-(5-fluoro-2-methoxyphenyl)-2-((tetrahydro-2H-pyran-4-yl)oxy)ethyl)-5-methyl-6-(2H-1,2,3-triazol-2-yl)thieno[2,3-d]pyrimidine-2,4(1H,3H)-dione] | 1 to 5 nM | 1 to 5 nM | 2 µg/mL (≈ 3.13 µM) | 2 µg/mL (≈ 3.13 µM) | 0.08 µg/mL (≈ 0.125 µM) | 0.08 µg/mL (≈ 0.125 µM) | 0.4 µg/mL (≈ 0.626 µM) | 0.4 µg/mL (≈ 0.626 µM) | 0.25 to 1 µg/mL (≈ 0.391 to 1.57 µM) | 1.01 to 2 µg/mL (≈ 1.58 to 3.13 µM) | 0.25 to 1 µg/mL (≈ 0.391 to 1.57 µM) | 0.25 to 1 µg/mL (≈ 0.391 to 1.57 µM) | > 50 µg/mL | > 50 µg/mL | 0.08 µg/mL (≈ 0.125 µM) | 0.08 µg/mL (≈ 0.125 µM) | 1 to 5 nM | 1 to 5 nM | 0.4 µg/mL (≈ 0.626 µM) | 0.4 µg/mL (≈ 0.626 µM) |  |
